Measured values from patent US20020098509A1, “Method for the quantitative determination of reversible acting inhibitors of the oxidoreductases” (priority 1995, published 2002).
Read-outs that look alike come from different tables or passages of the source.

How the values were obtained:
[1] = test system: sarcosine oxidase; test: Stirred vessel system, initial gradient of oxygen or hydrogen peroxide signal; type: biochemical; conditions: for effect of substrate concentration on inhibition of the sarcosine oxidase, FIG. 16: 0.1 g/l sarcosine compared to 1.0 g/l sarcosine
Excerpt: In contrast to the FIA system the stirred vessel system is a discontinuous process. In order to perform a measurement all necessary reaction partners are brought into the reaction chamber of the stirred vessel system and the course of reaction is been monitored by the appropriate detectors during a fixed time period. Afterwards the whole reaction mixture is removed. Then a new measurement can be done.
The reaction mixture of the stirred vessel system in FIG. 11 consists of the sample, substrate, buffer solution and enzyme. Here, the sample and the enzyme are added one after another and the sample itself containing the analyte, acetic acid for instance, in different concentrations. […] The result of the measurement is calculated from the initial gradient of the signal.
During the calibration via the initial gradient samples of different analyte concentration are added and the relating initial inclines are drawn into the chart in dependence of the analyte concentration (see FIGS. 12, 13 and 14). The sample containing the unknown analyte concentration is added to the reaction mixture in the same manner and is determined by using the initial incline which is compared to the calibration curve.

[2] = test system: sarcosine oxidase; conditions: for inhibition of the sarcosine oxidase activity, FIG. 10: sarcosine oxidase 100 U
Excerpt: In FIA systems an injected volume of the sample is transported to the detector by a continuous moving, not segmented carrier or transport flow via a mixing and reaction line. Meanwhile, the injected sample zone is broadened (dispersion) and reacts with the ingredients of the carrier flow. As a result of the chemical conversion, the changes in concentration of the participating components lead to a change of signal at the detector, which is characteristic for the concentration of the determined substance of the injected sample. In FIG. 1 the analyte (acetic acid) as well as the substrate (sarcosine) are injected as a sample into the carrier flow consisting of the working buffer. The mixing and reacting line contains the immobilized enzyme sarcosine oxidase, which reacts with the analyte and the substrate of the sample. The decrease of oxygen or the production of hydrogene peroxide is measured by means of an oxygen or hydrogene peroxide electrode. A typical measuring signal is reproduced in FIG. 2. The peak high H or surface S is proportional to the concentration of the sample. When calibrating via the peak heights, samples of different analyte concentrations are injected and the resulting peak heights in dependence of their analyte concentrations are drawn into a chart (FIG. 3). The sample of unknown analyte concentration is injected in the same manner and can be determined via the peak height with the help of the calibration curve. In FIG. 4 the substrate is added to the buffer solution and calibration is done by injecting the analyte. Again the analysis of the unknown sample can be be done by using the calibration curve as described in FIG. 5.

Compound	effect of substrate concentration on inhibition of the sarcosine oxidase, FIG. 16 [1]	amount of inhibition of the sarcosine oxidase (relative initial incline versus analyte concentration), FIG. 15 ([1]; comparison of analytes, acetate and propionate as reference curves)	inhibition of the sarcosine oxidase activity, FIG. 10 ([2]; 0.25 g/l respectively 0.5 g/l sarcosine)	inhibition of the sarcosine oxidase activity, FIG. 10 ([2]; 1 g/l or 2 g/l sarcosine)	inhibitor strength (inhibition of the measuring system), FIG. 7 ([2]; substances arising in biotechnological media, maximum concentration 0.1 mol/l)
CCC(=O)O [propionate]	substantial higher inhibition	–	–	–	–
CC=O [acetaldehyde]	only slightly influenced	lower	–	–	–
CC(=O)O [acetate]	substantial higher inhibition	–	a considerable amount of inhibition	only a small amount of inhibition	quite strong
